Assay results reported in patent publication EP4644383A1 (Jiangsu Yahong Meditech Co., Ltd., priority 2022, dated 2024).
Like-named read-outs stand apart in the source and are kept apart here.

Experiments:
FGFR1 = biological target: T1, FGFR1 (Homo sapiens, UniProt P11362); test: FGFR1 kinase activity inhibition assay (LanthaScreen TR-FRET); type: biochemical
T1 construct: cytoplasmic domain [398-822 (terminal) amino acids]; purchased Carna 08-133
Procedure: PV3552) and 10 mM EDTA were added to quench the kinase reaction, and incubated at 22°C for 60 minutes. • ⑤ The reaction was measured using a PerkinElmer EnVision multimode plate reader through TR-FRET dual wavelength detection. • 1. The RFU values were copied from the Envision program. • 2. The ratio of RFU 520nm/RFU 495nm was calculated. • 3. The value of the ratio was converted to a percentage inhibition value. % Inhibition = (max-data)/(max-min) × 100 [formula] "Min" represents the ratio of the control without enzyme, "max" represents the ratio of the DMSO control, and "data" represents the ratio of the compounds in wells with different concentrations. […] "Top" refers to the maximum response, "Bottom" refers to the minimum response, and "HillSlope" refers to the slope of the curve.

FGFR3 = biological target: T2, FGFR3 (Homo sapiens, UniProt P22607); test: FGFR3 kinase activity inhibition assay (LanthaScreen TR-FRET); type: biochemical; conditions: for Selectivity (X) FGFR1/FGFR3: ratio of IC50 FGFR1/FGFR3, selectivity towards FGFR3
T2 construct: FGFR3's cytoplasmic domain [436-806 (terminal) amino acids]; purchased Carna 08-135
How it was run: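 Read-out is TR-FRET, with the 520 nm/495 nm emission ratio normalised to DMSO (max) and enzyme-free (min) controls. Enzyme was the FGFR3 cytoplasmic domain, residues 436-806. EDTA (10 mM) stopped the reaction, followed by 60 min at 22 °C before reading.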

[1] = FGFR1 kinase, TR-FRET, read-out: IC50 (nM) FGFR1
[2] = FGFR3 kinase, TR-FRET, read-out: IC50 (nM) FGFR3

T1 sequence (P11362 398-822): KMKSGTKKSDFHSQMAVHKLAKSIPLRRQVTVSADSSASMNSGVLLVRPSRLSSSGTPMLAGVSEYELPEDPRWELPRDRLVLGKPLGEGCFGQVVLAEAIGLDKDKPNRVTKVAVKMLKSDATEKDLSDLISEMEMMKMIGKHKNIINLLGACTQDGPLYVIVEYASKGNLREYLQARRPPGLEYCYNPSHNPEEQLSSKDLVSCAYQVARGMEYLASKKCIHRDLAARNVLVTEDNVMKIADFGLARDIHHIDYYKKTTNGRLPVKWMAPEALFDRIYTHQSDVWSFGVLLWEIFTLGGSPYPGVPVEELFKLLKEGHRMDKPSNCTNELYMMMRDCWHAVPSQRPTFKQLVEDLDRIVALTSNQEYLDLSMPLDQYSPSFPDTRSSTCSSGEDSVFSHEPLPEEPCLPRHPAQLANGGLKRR
T2 sequence (P22607 436-806): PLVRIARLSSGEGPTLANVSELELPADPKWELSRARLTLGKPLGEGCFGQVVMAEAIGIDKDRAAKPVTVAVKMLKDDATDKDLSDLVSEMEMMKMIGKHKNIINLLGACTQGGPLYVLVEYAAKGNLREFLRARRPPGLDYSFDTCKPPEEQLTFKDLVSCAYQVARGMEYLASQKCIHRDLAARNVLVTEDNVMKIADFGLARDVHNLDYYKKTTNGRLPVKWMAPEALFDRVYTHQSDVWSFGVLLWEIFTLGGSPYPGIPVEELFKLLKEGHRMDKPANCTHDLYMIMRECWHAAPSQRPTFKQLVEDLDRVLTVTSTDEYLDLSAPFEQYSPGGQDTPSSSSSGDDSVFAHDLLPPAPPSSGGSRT

SMILES | IC50 (FGFR1; [1]) | IC50 (FGFR3; [2]) | Selectivity (X) FGFR1/FGFR3 (FGFR3) | IC50 (FGFR1) | IC50 (FGFR3)
CNCCNS(=O)(=O)c1ccc2[nH]nc(-c3cnn(C)c3)c2c1 [Example 76, 3-(1-methyl-1H-pyrazol-4-yl)-N-(2-(methylamino)ethyl)-1H-indazole-5-sulfonamide] | > 100 nM | > 100 nM | A (A represents 1 ≤ multiple X<20) |  | 
Cc1ccc2ncccc2c1C(C)Oc1ncc2[nH]nc(-c3cnn(C)c3)c2n1 (stereo not drawn) [Example 110, 6-methyl-5-(1-((3-(1-methyl-1H-pyrazol-4-yl)-1H-pyrazino [4,3-d]pyrimidin-5-yl)oxy)ethyl)quinoline] |  |  | A (A represents 1 ≤ multiple X<20) | 10 to 100 nM | 1 to 10 nM
Cc1ccc2nccnc2c1C(C)Oc1ccc2[nH]nc(-c3cnn(C)c3)c2c1 (stereo not drawn) [Example 112] | 10 to 100 nM | < 1 nM | A (A represents 1 ≤ multiple X<20) |  | 
CC(C)c1ccc2nccnc2c1C(C)Oc1ccc2[nH]nc(-c3cnn(C)c3)c2c1 (stereo not drawn) [Example 129, 6-isopropyl-5-(1-((3-(1-methyl-1H-pyrazol-4-yl)-1H-indazol-5-yl)oxy)ethyl)quino xaline] | 1 to 10 nM | 1 to 10 nM | A (A represents 1 ≤ multiple X<20) |  | 
CC(C)c1cc(C(C)Oc2ccc3[nH]nc(-c4cnn(C)c4)c3c2)c2nccnc2c1 (stereo not drawn) [Example 144, 7-isopropyl-5-(1-((3-(1-methyl-1H-pyrazol-4-y1)-1H-indazol-5-yl)oxy)ethyl)quino xaline] |  |  | C (C represents 50 ≤ multiple X<100) | > 100 nM | < 1 nM
CC(Oc1ccc2[nH]nc(-c3ccc(N4CCS(=O)(=O)CC4)nc3)c2c1)c1cccc2nccnc12 (stereo not drawn) [Example 149, 4-(5-(5-(1-(quinoxalin-5-yl)ethoxy)-1H-indazol-3-yl)pyridin-2-yl)thiomorpholine1,1-dioxide] | 10 to 100 nM | < 1 nM | B (B represents 20 ≤ multiple X<50) |  | 
CC(Oc1ccc2[nH]nc(-c3cnn(CCS(=O)(=O)N(C)C)c3)c2c1)c1cccc2nccnc12 (stereo not drawn) [Example 160, N,N-dimethyl-2-(4-(5-(1-(quinoxalin-5-yl)ethoxy)-1H-indazol-3-yl)-1H-pyrazol-1-yl)ethane-1-sulfonamide] | > 100 nM | 1 to 10 nM | B (B represents 20 ≤ multiple X<50) |  | 
Cc1ccc2nnccc2c1C(C)Oc1ccc2[nH]nc(-c3cnn(C)c3)c2c1 (stereo not drawn) [Example 168, 6-methyl-5-(1-((3-(1-methyl-1H-pyrazol-4-yl)-1H-indazol-5-yl)oxy)ethyl)cinnoline] | 10 to 100 nM | 1 to 10 nM | A (A represents 1 ≤ multiple X<20) |  | 
CC(Oc1ccc2[nH]nc(-c3cnn(C4CN(C(N)=O)C4)c3)c2c1)c1cc(Cl)cc2nccnc12 (stereo not drawn) [Example 169, 3-(4-(5-(1-(7-chloroquinoxalin-5-yl)ethoxy)-1H-indazol-3-yl)-1H-pyrazol-1-yl)aze tidine-1-carboxamide] | 10 to 100 nM | 1 to 10 nM | A (A represents 1 ≤ multiple X<20) |  | 

Further lines, with some results ahead:

IC50 (FGFR1; [1]) | IC50 (FGFR3; [2]) | Selectivity (X) FGFR1/FGFR3 (FGFR3) | SMILES | IC50 (FGFR1) | IC50 (FGFR3)
> 100 nM | 10 to 100 nM | B (B represents 20 ≤ multiple X<50) | CC(Oc1ccc2[nH]nc(-c3cnn(C)c3)c2c1)c1ccnc2ccccc12 (stereo not drawn) [Example 87, 4-(1-((3-(1-methyl-1H-pyrazol-4-yl)-1H-indazol-5-yl)oxy)ethyl)quinoline] |  | 
10 to 100 nM | 1 to 10 nM | A (A represents 1 ≤ multiple X<20) | CCc1ccc2ncccc2c1C(C)Oc1ccc2[nH]nc(-c3cnn(C)c3)c2c1 (stereo not drawn) [Example 111, 6-ethyl-5-(1-((3-(1-methyl-1H-pyrazol-4-yl)-1H-indazol-5-yl)oxy)ethyl)qu inoline] |  | 
10 to 100 nM | 1 to 10 nM | A (A represents 1 ≤ multiple X<20) | CCC(Oc1ccc2[nH]nc(-c3cnn(C)c3)c2c1)c1c(C)ccc2ncccc12 (stereo not drawn) [Example 113, 6-methyl-5-(1-((3-(1-methyl-1H-pyrazol-4-yl)-1H-indazol-5-yl)oxy)propyl)quinoline] |  | 
> 100 nM | 1 to 10 nM | B (B represents 20 ≤ multiple X<50) | CC(Oc1ccc2[nH]nc(-c3cnn(C)c3)c2c1)c1nccc2ncccc12 (stereo not drawn) [Example 120, 5-(1-((3-(1-methyl-1H-pyrazol-4-yl)-1H-indazol-5-yl)oxy)ethyl)-1,6-naphthyridine] |  | 
> 100 nM | 1 to 10 nM | B (B represents 20 ≤ multiple X<50) | Cc1cnc2cccc(C(C)Oc3ccc4[nH]nc(-c5cnn(C)c5)c4c3)c2c1 (stereo not drawn) [Example 128, 3-methyl-5-(1-((3-(1-methyl-1H-pyrazol-4-yl)-1H-indazol-5-yl)oxy)ethyl)qu inoline] |  | 
> 100 nM | 1 to 10 nM | C (C represents 50 ≤ multiple X<100) | CC(Oc1ccc2[nH]nc(-c3cnn(C)c3)c2c1)c1cc(C2CC2)cc2nccnc12 (stereo not drawn) [Example 139, 7-cyclopropyl-5-(1-((3-(1-methyl-1H-pyrazol-4-yl)-1H-indazol-5-yl)oxy)ethyl)qu inoxaline] |  | 
10 to 100 nM | < 1 nM | B (B represents 20 ≤ multiple X<50) | CC(Oc1ccc2[nH]nc(-c3cnn(C)c3)c2c1)c1cc(C#N)cc2nccnc12 (stereo not drawn) [Example 141, 8-(1-((3-(1-methyl-1H-pyrazol-4-yl)-1H-indazol-5-yl)oxy)ethyl)qu inoxaline-6-carbonitrile] |  | 
10 to 100 nM | 1 to 10 nM | B (B represents 20 ≤ multiple X<50) | CC(Oc1ccc2[nH]nc(-c3cnn(C)c3)c2c1)c1cc(Br)cc2nccnc12 (stereo not drawn) [Example 143, 7-bromo-5-(1-((3-(1-methyl-1H-pyrazol-4-yl)-1H-indazol-5-yl)oxy)ethyl)quinoxaline] |  | 
1 to 10 nM | < 1 nM | A (A represents 1 ≤ multiple X<20) | CC(Oc1ccc2[nH]nc(-c3cnn(C)c3)c2c1)c1cc(C(F)F)cc2nccnc12 (stereo not drawn) [Example 145, 7-(difluoromethyl)-5-(1-((3-(1-methyl-1H-pyrazol-4-yl)-1H-indazol-5-yl)oxy)ethyl)qu inoxaline] |  | 
10 to 100 nM | 1 to 10 nM | A (A represents 1 ≤ multiple X<20) | CC(Oc1ccc2[nH]nc(-c3cnn(C)c3)c2c1)c1cccc2ncc(N)cc12 (stereo not drawn) [Example 147, 5-(1-((3-(1-methyl-1H-pyrazol-4-yl)-1H-indazol-5-yl)oxy)ethyl)qu inoline-3-amine] |  | 
> 100 nM | 1 to 10 nM | C (C represents 50 ≤ multiple X<100) | COc1cc(C(C)Oc2ccc3[nH]nc(-c4cnn(C)c4)c3c2)c2cccnc2c1 (stereo not drawn) [Example 148, 7-methoxy-5-(1-((3-(1-methyl-1H-pyrazol-4-yl)-1H-indazol-5-yl)oxy)ethyl)qu inoline] |  | 
1 to 10 nM | < 1 nM | A (A represents 1 ≤ multiple X<20) | CC(Oc1ccc2[nH]nc(-c3cnn(C)c3)c2c1)c1cc(N)cc2ncccc12 (stereo not drawn) [Example 150, 5-(1-((3-(1-methyl-1H-pyrazol-4-yl)-1H-indazol-5-yl)oxy)ethyl)qu inoline-7-amine] |  | 
